The source of these data is ChEMBL document CHEMBL4622890, “Antiproliferative Flavanoid Dimers Isolated from Brazilian Red Propolis” (J Nat Prod, 2020).

Each structure is given as a SMILES string.

The test system of experiment [1] is U-251. The experiment is described as follows: Cytotoxicity against human U251 cells after 48 hrs by MTT assay. The experiment is classed as functional. Conditions: U-251, 48 h. On the technique in general: Tetrazolium assays rely on reduction of a dye to a coloured formazan, in cell work by metabolically active cells.
In experiment [2] the test system is MCF7. The experiment is described as follows: Cytotoxicity against human MCF7 cells after 48 hrs by MTT assay. The experiment is classed as functional. Conditions: MCF7, 48 h.
For experiment [3], the system named is NCI/ADR-RES. Briefly: Cytotoxicity against human NCI-ADR-RES cells after 48 hrs by MTT assay. The experiment is classed as functional.
The subject of experiment [4] is PC-3. Briefly: Cytotoxicity against human PC3 cells after 48 hrs by MTT assay. The experiment is classed as functional. The conditions noted are these: PC-3, 48 h.
Experiment [5] can be described thus: Antioxidant activity assessed as hydroxyl radical scavenging activity after 5 mins by H2DCF-DA dye based fluorescence spectrophotometric analysis. The experiment is classed as functional.
Experiment [6] is described as follows: Chemopreventive index, ratio of IC50 for mouse Hepa-1c1c7 cells to drug level required to double NADPH:quinone reductase activity in mouse Hepa-1c1c7 cells.
Experiment [7] relates to HT-29. Briefly: Cytotoxicity against human HT-29 cells after 3 days by sulforhodamine B assay. The experiment is classed as functional, cell-based. Conditions: HT-29, 72 h. (In general: Sulforhodamine B stains cellular protein and so reports cell mass.)
Experiment [8] deals with Transcription factor p65 (Homo sapiens, UniProt Q04206). Briefly: Inhibition of NF-kappaB p65 in human HeLa cells nuclear extract by chemiluminescent assay. The experiment is classed as cell-free.
Chain of Transcription factor p65 (Q04206 whole entry): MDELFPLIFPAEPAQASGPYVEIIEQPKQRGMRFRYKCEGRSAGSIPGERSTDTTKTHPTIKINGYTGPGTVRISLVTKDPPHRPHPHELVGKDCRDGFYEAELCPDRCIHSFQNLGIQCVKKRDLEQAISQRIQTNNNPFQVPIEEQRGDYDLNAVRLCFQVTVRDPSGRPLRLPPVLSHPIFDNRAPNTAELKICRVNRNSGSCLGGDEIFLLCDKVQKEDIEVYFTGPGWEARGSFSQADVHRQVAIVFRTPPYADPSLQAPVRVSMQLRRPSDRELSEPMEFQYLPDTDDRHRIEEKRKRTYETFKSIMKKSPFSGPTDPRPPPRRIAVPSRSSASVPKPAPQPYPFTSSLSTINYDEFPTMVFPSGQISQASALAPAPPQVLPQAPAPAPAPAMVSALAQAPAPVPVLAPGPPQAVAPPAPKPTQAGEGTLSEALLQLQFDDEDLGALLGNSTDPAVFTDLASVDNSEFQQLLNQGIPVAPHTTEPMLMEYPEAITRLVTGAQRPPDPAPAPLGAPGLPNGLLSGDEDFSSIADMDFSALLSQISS

By TGI is commonly meant the concentration at which net growth stops. A low value points to greater sensitivity of the cells. Usually LC50 stands for the concentration that kills 50% of the test population. Take `COc1ccc2c(c1)OCC(c1cc(Cc3c(-c4ccc(O)cc4O)oc4cc(OC)ccc34)c(O)cc1O)C2` (stereo not drawn): in experiment [1], total growth inhibition (TGI) required 17.2 µM. Further, in experiment [1] (read-out: LC50 (the source's name)), the CC50 was no less than 10 µM. In experiment [2], this compound displayed an LC50 (lethal concentration 50%) of no less than 10 µM and a TGI of 27 µM. Besides, in experiment [3], the LC50 (concentration killing 50% of cells) is no less than 10 µM and total growth inhibition (TGI) required 19.1 µM. In experiment [4], the LC50 was no less than 10 µM and the concentration for total growth inhibition (TGI) worked out at 19.1 µM.
For the compound `COc1cccc2c1C(=O)c1c(O)c3c(c(O)c1C2=O)C[C@@](O)(C(=O)CO)C[C@@H]3O[C@H]1C[C@H](N)[C@H](O)[C@H](C)O1` [DOXORUBICIN], the TGI in experiment [1] came to 6.9 µM; in experiment [2] it was 12.2 µM; in experiment [3], 16.1 µM; in experiment [4], 4 µM.
In general, IC50 refers to the concentration that gives 50% inhibition. A lower IC50 goes with inhibition by little substance. Consider `C=CC(C)(C)c1cc2c(cc1O)OC[C@H](c1cc(-c3oc4cc(O)ccc4c3C(=O)c3cc(C(C)(C)C=C)c(O)cc3O)c(O)cc1O)C2`, for which the ED50 in experiment [5] was 0.7 to 0.9 µM. For the same compound, the Ratio in experiment [6] is listed as 1.3 - 7.4. In experiment [7], this compound registered an IC50 of 1.6 to 4.5 µM.
As for `C[S+]([O-])CCCCN=C=S` (stereo not drawn) [SULFORAPHANE], the Ratio in experiment [6] stood at 21.4.
On to `COc1ccc2c(c1)OCC(c1cc(-c3oc4cc(OC)ccc4c3Cc3ccc(O)cc3O)c(O)cc1O)C2` (stereo not drawn), for which the TGI in experiment [1] was found to be 25 µM; in experiment [2], 34.6 µM; in experiment [3], 29.9 µM; in experiment [4], 21.9 µM. Also, the LC50 in experiment [4] is no less than 10 µM.
`C=CC(C)(C)c1cc(-c2oc3cc(O)ccc3c2Cc2cc(-c3cc4cc(C(C)(C)C=C)c(O)cc4oc3=O)c(O)cc2O)c(O)cc1O`: in experiment [5], the ED50 was 0.7 to 0.9 µM. The Ratio in experiment [6] was 1.3 - 7.4. In experiment [7], this compound showed an IC50 of 1.6 to 4.5 µM.
In the case of `C=CC(C)(C)c1cc(C(=O)c2c(-c3cc(-c4cc5cc(C(C)(C)C=C)c(O)cc5oc4=O)c(O)cc3O)oc3cc(O)ccc23)c(O)cc1O`, the IC50 in experiment [8] is 0.006 µM; in experiment [7], 1.6 to 4.5 µM. Besides, the ED50 in experiment [5] fell in the range of 0.7 to 0.9 µM. The Ratio in experiment [6] is 1.3 - 7.4.
